Test results: patent US20130302409A1, “METHODS AND COMPOSITIONS FOR CANCER IMMUNOTHERAPY” (priority 2010, published 2013)

Tested on: 4T1 tumor (highly metastatic, syngeneic mammary cancer cell line)
Experiment: Survival of tumor-bearing mice after cyclophosphamide, intratumoral nanoparticles and cryoablation or resection
Format: in vivo, BALB/c mice
Settings: Cy 200 mg/kg intraperitoneally day 14 plus cryoablation day 16, compared with Cy plus surgical resection of the subcutaneous nodule; FIG. 3A
Experimental: The particles are suspended with a pipette for about one minute. […] The particles in PBS should not be used if kept for more than 12 hours. The particles are lightly sonicated with a bath sonicator, or vortexed to make an even suspension. The particles should not sit idly in the syringe as they will settle and then clog the syringe. Ideally, the injection should be made within 10-30 seconds after drawing the well-mixed nanoparticle suspension into the syringe. For mice with a tumor of 5-8 mm diameter, 100 mg of particles is injected directly into the tumor in a volume of 0.1 ml.
Groups of 10 BALB/c mice each received a subcutaneous inoculation of 10^4 cells of the highly metastatic, syngeneic mammary cancer cell line on the flank.

Question: For O=P1(N(CCCl)CCCl)NCCCO1 (stereo not shown) [cyclophosphamide], which survival is on record?
Answer: The survival was “did not survive significantly longer”.
